pIC50: −log10 of the molar value. Entries after “also recorded” stand apart in the source; their conditions may differ.
Target: T1, purified recombinant perforin (Mus musculus, UniProt P10820)
T1 sequence (P10820 21-554): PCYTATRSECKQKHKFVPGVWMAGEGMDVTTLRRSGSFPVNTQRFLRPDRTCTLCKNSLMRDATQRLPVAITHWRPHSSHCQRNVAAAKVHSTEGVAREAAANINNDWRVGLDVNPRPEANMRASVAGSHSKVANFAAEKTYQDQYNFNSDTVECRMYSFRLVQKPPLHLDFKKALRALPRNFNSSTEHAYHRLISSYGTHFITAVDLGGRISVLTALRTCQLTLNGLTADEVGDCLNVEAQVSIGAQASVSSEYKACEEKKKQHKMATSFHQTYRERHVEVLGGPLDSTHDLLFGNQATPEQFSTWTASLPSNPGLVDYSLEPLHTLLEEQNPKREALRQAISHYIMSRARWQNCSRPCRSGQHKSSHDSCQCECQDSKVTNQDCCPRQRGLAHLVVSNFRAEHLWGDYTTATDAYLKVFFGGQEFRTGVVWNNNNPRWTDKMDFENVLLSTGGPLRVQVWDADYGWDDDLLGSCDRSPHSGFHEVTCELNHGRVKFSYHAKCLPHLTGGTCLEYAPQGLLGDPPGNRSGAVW
Assay: cell-based
Format: cell-based
Conditions: lysis of Jurkat cells by purified recombinant perforin, 51Cr release, 0.1% BSA, average of at least three determinations; for pIC50: read-out: inhibition of Jurkat cell lysis, IC50
Protocol: The ability of the compounds to inhibit the lysis of nucleated (Jurkat T lymphoma) cells in the presence of 0.1% BSA was measured by release of ^51Cr label. Jurkat target cells were labeled by incubation in medium with 100 μCi ^51Cr for 1 h. The cells were then washed three times to remove unincorporated isotope and resuspended at 1 × 10^5 cells per milliliter in RPMI buffer supplemented with 0.1% BSA. […] Each data point was performed in triplicate, and an IC50 was calculated from the range of concentrations described above.

## O=C1NC(=S)N/C1=C/c1ccc(-c2ccc(C(=O)NCCN3CCOCC3)cc2)s1 [compound 70]
  pIC50: < 4.70

## O=C1NC(=S)N/C1=C/c1ccc(-c2ccc(F)c(F)c2)s1 [compound 49]
  pIC50: 5.34

## O=C1NC(=S)N/C1=C/c1ccc(-c2ccc(C(=O)NCCCN3CCOCC3)cc2)s1 [compound 71]
  pIC50: 5.09

## CN(C)CCCN1Cc2cc(-c3ccc(/C=C4/NC(=S)NC4=O)s3)ccc2C1=O [compound 131, (E,Z)-2-(3-(Dimethylamino)propyl)-5-(5-((5-oxo-2-thioxoimidazolidin-4-ylidene)methyl)thiophen-2-yl)isoindolin-1-one]
  pIC50: < 4.70

## O=C1NC(=S)N/C1=C/c1ccc(-c2ccc3c(c2)CN(CCN2CCOCC2)C3=O)s1 [compound 130, (E,Z)-2-(2-Morpholinoethyl)-5-(5-((5-oxo-2-thioxoimidazolidin-4-ylidene)methyl)thiophen-2-yl)isoindolin-1-one]
  inhibition of Jurkat cell lysis, IC50: not reproducible; also recorded: variable

## CNC(=O)c1ccc(-c2ccc(/C=C3/NC(=S)NC3=O)s2)cc1 [compound 67, (E,Z)-N-Methyl-4-(5-((5-oxo-2-thioxoimidazolidin-4-ylidene)methyl)thiophen-2-yl)benzamide]
  pIC50: 5.34

## CC(=O)c1ccc(-c2ccc(/C=C3/NC(=S)NC3=O)s2)cc1 [compound 57]
  pIC50: 5.78

## O=C1NC(=S)N/C1=C/c1ccc(-c2ccc(Br)cc2)s1 [compound 55]
  pIC50: 5.77

## CS(=O)(=O)c1ccc(-c2ccc(/C=C3/NC(=S)NC3=O)s2)cc1 [compound 63]
  pIC50: 4.86

## O=C1NC(=S)N/C1=C/c1cc2cc(-c3ccc4c(c3)CCNC4=O)ccc2[nH]1 [compound 211]
  pIC50: 5.84

## O=C1NC(=S)N/C1=C/c1ccc(-c2ccc(C(=O)NCCCO)cc2)s1 [compound 73]
  pIC50: 5.36

## O=C1NC(=S)N/C1=C/c1ccc(-c2cccc(C(F)(F)F)c2)s1 [compound 50]
  pIC50: 5.25

## O=C1NC(=S)N/C1=C\c1cccc(-c2ccc3c(c2)CNC3=O)c1 [compound 206]
  pIC50: 5.46

## CCCCN1Cc2cc(-c3ccc(/C=C4/NC(=S)NC4=O)s3)ccc2C1=O [compound 122]
  pIC50: 5.93

## O=C1NC(=S)N/C1=C/c1ccc(-c2ccc3c(c2)CN(CC(O)CO)C3=O)s1 (centres unmarked) [compound 127]
  pIC50: 5.90

## NC(=O)c1cccc(-c2ccc(/C=C3/NC(=S)NC3=O)s2)c1 [compound 60]
  pIC50: 6.10

## CC(=O)c1cn(C)c2ccc(-c3ccc(/C=C4\NC(=S)NC4=O)s3)cc12 [compound 178]
  pIC50: 5.28

## CN1CCN(CCCN2Cc3cc(-c4ccc(/C=C5/NC(=S)NC5=O)s4)ccc3C2=O)CC1 [compound 133]
  pIC50: < 4.70

## CN1Cc2ccc(-c3ccc(/C=C4/NC(=S)NC4=O)s3)cc2C1=O [compound 166, (E,Z)-2-Methyl-6-(5-((5-oxo-2-thioxoimidazolidin-4-ylidene)methyl)thiophen-2-yl)isoindolin-1-one]
  pIC50: 5.72

## O=C1NC(=S)N/C1=C/c1cc2ccc(-c3ccc4c(c3)CCNC4=O)cc2[nH]1 [compound 210]
  pIC50: 5.78

## CCCN1Cc2cc(-c3ccc(/C=C4/NC(=S)NC4=O)s3)ccc2C1=O [compound 121]
  pIC50: 5.82

## CN(C)C(=O)c1ccc(-c2ccc(/C=C3/NC(=S)NC3=O)s2)cc1 [compound 68]
  pIC50: 5.16

## O=C1NC(=S)N/C1=C/c1ccc(-c2ccc3c(c2)C(=O)NC3)s1 [compound 165]
  pIC50: 5.86

## O=C1NC(=S)N/C1=C/c1ccc(-c2ccc(C(F)(F)F)cc2)s1 [compound 51]
  pIC50: 5.33

## CC(C)N1Cc2cc(-c3ccc(/C=C4/NC(=S)NC4=O)s3)ccc2C1=O [compound 123]
  pIC50: 5.35

## CN1CCc2cc(-c3ccc(/C=C4/NC(=S)NC4=O)s3)ccc2C1=O [compound 169]
  pIC50: 5.63

## O=C1NC(=S)N/C1=C/c1ccc(-c2ccc(C(=O)NCCO)cc2)s1 [compound 72]
  pIC50: 5.44

## COC(=O)c1ccc(-c2ccc(/C=C3/NC(=S)NC3=O)s2)cc1C [compound 62]
  pIC50: 5.52

## O=C1NC(=S)N/C1=C/c1ccc(-c2ccc3c(c2)CN(CCCN2CCCCC2)C3=O)s1 [compound 132]
  pIC50: 4.93

## O=C1NC(=S)N/C1=C/c1cc2cc(-c3ccc4c(c3)CNC4=O)ccc2[nH]1 [compound 209]
  pIC50: 5.60

## CSc1ccc(-c2ccc(/C=C3/NC(=S)NC3=O)s2)cc1 [compound 56]
  pIC50: 5.94

## CC(=O)N1Cc2cc(-c3ccc(/C=C4/NC(=S)NC4=O)s3)ccc2C1=O [compound 128]
  pIC50: 6.03

## O=C1NC(=S)N/C1=C/c1ccc(-c2cccc(F)c2)s1 [compound 47]
  pIC50: 4.97

## O=C1NC(=S)N/C1=C/c1ccc(-c2ccc(F)cc2)s1 [compound 48]
  pIC50: 5.17

## O=C1NC(=S)N/C1=C/c1ccc(-c2ccc3c(c2)CNC3=O)cc1 [compound 205]
  pIC50: 5.26

## O=C1NC(=S)N/C1=C/c1ccc(-c2cccc(Cl)c2)s1 [compound 45]
  pIC50: 5.14

## O=C1NC(=S)/C(=C/c2ccc3cc(-c4ccc5c(c4)CCNC5=O)ccc3n2)N1 [compound 212]
  pIC50: 5.59

## COC(=O)c1ccc(-c2ccc(/C=C3/NC(=S)NC3=O)s2)cc1 [compound 59]
  pIC50: 5.79

## O=C1NC(=S)N/C1=C\c1cc(-c2ccc3c(c2)CNC3=O)cs1 [compound 204]
  pIC50: 5.52

## N#Cc1cccc(-c2ccc(/C=C3/NC(=S)NC3=O)s2)c1 [compound 52]
  pIC50: 5.01

## O=C1NC(=S)N/C1=C/c1cc2ccc(-c3ccc4c(c3)CNC4=O)cc2[nH]1 [compound 208]
  pIC50: 5.80

## O=C1NC(=S)N/C1=C/c1ccc(-c2ccc(O)cc2)s1 [compound 53]
  pIC50: 5.11

## CCN1Cc2cc(-c3ccc(/C=C4/NC(=S)NC4=O)s3)ccc2C1=O [compound 120]
  pIC50: 6.22

## CN1CCc2ccc(-c3ccc(/C=C4/NC(=S)NC4=O)s3)cc2C1=O [compound 170]
  pIC50: 5.32

## NC(=O)c1ccc(-c2ccc(/C=C3/NC(=S)NC3=O)s2)cc1 [compound 61]
  pIC50: 5.81

## O=C1NC(=S)N/C1=C/c1ccc(-c2ccc(Cl)cc2)s1 [compound 46]
  pIC50: 5.28

## CC(=O)OCc1ccc(-c2ccc(/C=C3/NC(=S)NC3=O)s2)cc1 [compound 58, (E,Z)-4-(5-((5-Oxo-2-thioxoimidazolidin-4-ylidene)methyl)thiophen-2-yl)benzyl Acetate]
  pIC50: 5.52

## O=C1NC(=S)N/C1=C/c1ccc(-c2ccncc2)s1 [compound 66]
  pIC50: 5.00

## O=C1NC(=S)N/C1=C/c1ccc(-c2ccc(Cl)c(C(F)(F)F)c2)s1 [compound 54]
  pIC50: 5.51

## O=C1NC(=S)N/C1=C/c1ccc(-c2cccnc2)s1 [compound 65]
  pIC50: 4.89

## O=C1NC(=S)N/C1=C/c1ccc(-c2ccccc2)s1 [compound 43]
  inhibition of Jurkat cell lysis, IC50: no detectable activity
  pIC50: < 4.70

## CS(=O)(=O)Nc1ccc(-c2ccc(/C=C3/NC(=S)NC3=O)s2)cc1 [compound 64]
  pIC50: 5.11

## CC(=O)OCCN1Cc2cc(-c3ccc(/C=C4/NC(=S)NC4=O)s3)ccc2C1=O [compound 124, (E,Z)-2-(1-Oxo-5-(5-((5-oxo-2-thioxoimidazolidin-4-ylidene)methyl)thiophen-2-yl)isoindolin-2-yl)ethyl Acetate]
  pIC50: 5.93

## CC(O)CNC(=O)c1ccc(-c2ccc(/C=C3/NC(=S)NC3=O)s2)cc1 (centres unmarked) [compound 74]
  pIC50: 5.19

## O=C1NC(=S)N/C1=C/c1ccc(-c2ccc(C(=O)N3CCOCC3)cc2)s1 [compound 69]
  pIC50: < 4.70

## O=C1NC(=S)N/C1=C/c1ccc(-c2ccc3c(c2)CN(CCCN2CCCC2)C3=O)s1 [compound 134]
  pIC50: 5.05

## O=C1NC(=S)N/C1=C/c1ccc(-c2ccc(C(=O)NCC(O)CO)cc2)s1 (centres unmarked) [compound 75]
  pIC50: 5.61

## O=C1NC(=S)N/C1=C/c1ccc(-c2ccccc2Cl)s1 [compound 44]
  pIC50: < 4.70
